pIC50: −log10 of the molar value. Where two headings read alike, the source gives them in different places.
Columns and labels:
[1] = tested on: STZ (streptozotocin)-induced diabetic rats; settings: vs vehicle group
Protocol: STZ (streptozotocin)-induced diabetic rats were prepared according to the following procedure. STZ (45 mg/kg) was intravenously administered to rats at the age of 7 weeks. At week 2 after administration of STZ, the blood was collected from the tail vein and the blood glucose level was measured to confirm that the blood glucose level was increased to 300 mg/dl or more. In the administration group, the rats were grouped so as to minimize the variation in the mean values of body weight, blood glucose level and pain response threshold measured on the previous day of the administration of the drug. A non-administration group of STZ was separately prepared and used as Normal group. A test drug was orally administered once daily for 28 consecutive days. Paresthesia due to neuropathy was determined by a von Frey Test (pain threshold test) at two time points, at 1 hour after administration on day 28 and on day 7 of cessation of the drug after the last administration (Pain, vol. 53, pp. 81-88, 1993). The test was initiated after the rats were placed in a cage for observation and acclimated for at least 20 minutes. By using a digital von Frey Test model 2390 (manufactured by IITC Inc.), a tip end was lightly applied to a paw. When there was no response, an applied load was increased from 1 to 3 g. The pain threshold was determined as an applied load (g) at which an avoidance response such as paw withdrawal was observed. In each animal, the measurement was performed twice for each of the left and right paws, and the mean of the 4 values was calculated as a withdrawal threshold (g). The improvement of paresthesia was determined based on the recovery of the withdrawal threshold in a drug administration group as compared with a vehicle (distilled water) administration group. Statistical test was performed between the vehicle administration group and the drug administration groups. For confirming the onset of diabetic neuropathy, a Student's t-test was also performed to compare the vehicle administration group and the Normal group.

[2] = tested on: STZ-induced diabetic rats; assay: Motor nerve conduction velocity (MNCV) in STZ-induced diabetic rats; assay type: in vivo, rat; settings: 30 mg/kg
Protocol: The measurement was performed using the method of Cameron et al. (The Journal of Experimental Physiology, vol. 74, pp. 917-926, 1989) with some modification.
1 were used. Further, the same test was performed also for the Normal group. The rats were anesthetized with sodium pentobarbital, and the temperature of the rectum was maintained at about 37.5° C. using a body temperature maintenance device for small animals, and then, the MNCV was measured using an evoked potential measurement device. First, a positive stimulating electrode was attached to a dorsal region. […] Then, an average waveform evoked by the stimulation was derived from bipolar recording electrodes inserted into a gastrocnemius muscle region of the hind limb of the same side, and the latency (sec) from the start of stimulation to the first deflection of an M-wave was measured. Thereafter, the tibial nerve around behind the knee was stimulated with a negative stimulating electrode in the same manner as above, and the latency (sec) was measured in the same manner as in the gastrocnemius muscle region. A value obtained by dividing a distance (m) between the two regions stimulated with the negative stimulating electrode by a difference (sec) in the M-wave latency measured in the above two stimulation experiments was determined to be an MNCV value. […]

[3] = tested on: fibroblast growth factor 2 (FGF-2); assay: Quantitative PCR of neurotrophic factor expression, spinal cord lumbar region of STZ-induced diabetic rats; assay type: in vivo, rat; settings: 30 mg/kg
Protocol: (§1) In order to verify whether (+)-2-[(1H-inden-7-yloxy)methyl]morpholine hydrochloride acts on the expression levels of neurotrophic factors, an improving effect of (+)-2-[(inden-7-yloxy)methyl]morpholine hydrochloride on a decrease in the expression levels of neurotrophic factors in the spinal cord and the dorsal root ganglia of STZ-induced diabetic rats was examined.
(§2) The expression levels of neurotrophic factors were measured in the animals on day 7 to 8 of cessation of the drug withdrawal after the repeated daily administration in each of the Normal group, the vehicle administration group (STZ-induced diabetic rats) and the drug administration group at a dose of 30 mg/kg (STZ-induced diabetic rats) in Example 2. The spinal cord lumbar region and the dorsal root ganglia (L4, L5, and L6) were excised and the total RNA was extracted from the excised specimens using an RNA extraction kit RNeasy (Qiagen). […] A quantitative PCR analysis was performed for the obtained cDNA using primers to fibroblast growth factor 2 (FGF-2), insulin-like growth factor 1 (IGF-1), and glyceraldehyde-3-phosphate dehydrogenase (G3PDH) by PRISM 7900 (ABI). […] The improving effect on a decrease in the expression levels of neurotrophic factors were determined based on the recovery on the expression levels of neurotrophic factors in the drug administration group as compared with the vehicle administration group. […]

[4] = tested on: insulin-like growth factor 1 (IGF-1); assay: Quantitative PCR of neurotrophic factor expression, dorsal root ganglia of STZ-induced diabetic rats; assay type: in vivo, rat; settings: 30 mg/kg
Protocol: as §1, §2

[5] = biological target: T1, Cytochrome P-450 (1A2) (Homo sapiens, UniProt P05177); assay: Test for Cytochrome P-450 (1A2) enzyme inhibition using human liver microsomes; assay type: in vitro ADME
T1 construct: 0.2 mg protein/mL human liver microsomes; from tissue; host or cells: human liver microsomes
T1 sequence (P05177 1-516): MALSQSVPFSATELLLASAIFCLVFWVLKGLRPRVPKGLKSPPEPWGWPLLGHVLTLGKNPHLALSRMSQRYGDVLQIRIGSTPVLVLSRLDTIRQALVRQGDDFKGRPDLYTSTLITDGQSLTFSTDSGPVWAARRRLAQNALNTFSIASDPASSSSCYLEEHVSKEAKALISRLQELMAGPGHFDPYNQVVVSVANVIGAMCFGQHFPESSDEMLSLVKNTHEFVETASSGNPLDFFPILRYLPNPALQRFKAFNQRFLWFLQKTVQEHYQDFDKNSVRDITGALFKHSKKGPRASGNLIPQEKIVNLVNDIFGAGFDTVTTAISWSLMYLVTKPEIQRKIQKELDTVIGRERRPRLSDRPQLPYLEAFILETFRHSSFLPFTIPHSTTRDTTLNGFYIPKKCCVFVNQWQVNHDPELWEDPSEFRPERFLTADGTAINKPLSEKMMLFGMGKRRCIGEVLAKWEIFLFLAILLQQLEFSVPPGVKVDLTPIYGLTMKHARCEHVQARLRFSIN
Protocol: An experiment was performed according to the method of Rae Yuan et al. (Drug Metabolism and Disposition, 30(12), 1311-1319, 2002).
By using a 96-well plate, a test drug (0.3 to 10 μmol/L) was added to 100 mmol/L Na-K phosphate buffer (pH=7.4) containing 0.1 mmol/L ethylenediaminetetraacetic acid (EDTA), 1 mmol/L nicotinamide adenine dinucleotide phosphate (NADPH), and 0.2 mg protein/mL human liver microsomes, and the total volume was made up to 145 μL, and then, preincubation of the resulting mixture was started at 37° C. At 5 minutes after the start of preincubation, phenacetin (20 mmol/L) was added thereto as a substrate for P450(1A2), and the total volume was made up to 150 μL, and then, the resulting mixture was incubated at 37° C. for 20 minutes. Thereafter, 130 μL of acetonitrile was added to the sample to stop the reaction. For the sample in which the reaction was stopped, the concentration of acetaminophen which is a metabolite of phenacetin was determined using LC/MS/MS.
A production amount of acetaminophen in the absence of the test drug was taken as 100%, and a production amount of acetaminophen in the presence of the test drug was calculated for each concentration of the test drug. Based on the calculated production amount for each concentration of the test drug, a concentration of the test drug at which the production amount of acetaminophen was 50% (IC50 value) was calculated from the following equation. The test was performed for two cases, and a mean value was used for the calculation of each value.
Production amount [I] (%)=100/(1+[I]/IC50)
Production amount [I] (%): (Production amount of acetaminophen when the test compound concentration was [I])/(Production amount of acetaminophen in the absence of test compound)×100

[6] = 30 mg/kg orally once daily for 28 days, measured on day 7 of cessation of drug
[7] = 30 mg/kg orally once daily, day 28 of repeated administration, 1 hour after administration

Row | SMILES | effect on the decrease in the withdrawal threshold (von Frey test) [1, 6] | effect on the decrease in the withdrawal threshold (von Frey test) [1, 7] | MNCV ([2]; p.o., day 7 to 8 of drug withdrawal after repeated daily administration, mean ± SEM, Normal 62.4, Vehicle 49.4) [m/s] | improving effect on a decrease in MNCV ([2]; vs vehicle group) | effect on the decrease in the expression level of FGF-2 [3] | relative gene expression level of FGF-2 normalized by G3PDH ([3]; p.o., day 7 to 8 of cessation, mean ± SEM, Normal 100.0, Vehicle 66.9) | effect on the decrease in the expression level of IGF-1 [4] | relative gene expression level of IGF-1 normalized by G3PDH ([4]; p.o., day 7 to 8 of cessation, mean ± SEM, Normal 100.0, Vehicle 54.6) | CYP inhibitory activity [5] | possibility of drug-drug interaction by oral administration ([5]; from difference between IC50 and Cmax at oral administration) | pIC50 ([5]; human liver microsomes, substrate phenacetin, acetaminophen production, mean of two cases)
1 | C1=Cc2cccc(OCC3CNCCO3)c2C1.Cl (racemic) [(±)-2-[(inden-7-yloxy)methyl]morpholine hydrochloride] | significantly restored the decrease in the withdrawal threshold | significantly restored the decrease in the withdrawal threshold | – | – | – | – | – | – | – | – | –
2 | C1=Cc2cccc(OCC3CNCCO3)c2C1.Cl (single isomer, unassigned; (+)) [(+)IDX, (+)-2-[(1H-inden-7-yloxy)methyl]morpholine hydrochloride] | significantly restored the decrease in the withdrawal threshold | significantly restored the decrease in the withdrawal threshold | 53.3 ± 1.1 | significant improving effect | significantly recovers the decrease in the expression levels | 103.5 ± 4.9 | significantly recovers the decrease in the expression levels | 67.7 ± 3.2 | extremely weak | extremely low | 5.09

Source: patent US20130023535A1, “METHOD OF PREVENTING AND/OR TREATING DIABETIC NEUROPATHY” (Astellas Pharma Inc., priority 2007, published 2013)
